Test: recombinant UMI read abundance after kanamycin selection (control-corrected) (log10(CPM+1)); higher = more efficient recombination; extreme values may be limits of the assay; sequences stand for … in AGTGCAGAGAAAATCGGCCAGTTTTCTCTGCCTGCAGTCCGCATGCCGTGGGACCCCTTGGGTTCTAACCTGTTGCCTAGATTTATGCAGCGGACTGCCTTTCTCCCAAAGTGATAAACCGG…AGGTTGGTTTCACT; site = the 11-nt donor
Procedure, shortened: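 Values, expressed as log10(CPM+1), derive from recombinant UMI counts converted to CPM, averaged across replicates and scaled by control-derived factors. Plating was with IPTG (0.07 mM) plus kanamycin or unselected, two replicates each. The screen pooled donor and donor-binding-loop pairs for the IS621 bridge recombinase in Escherichia coli.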
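Note: IS621 bridge recombinase in Escherichia coli cells against a fixed T5 target plasmid.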

Row | Sequence | recombinant UMI read abundance (log10)
1 | TTAGTTACATGGACCGGTTTTCCCGGTAATCCGTATTTGGC (site TTAGTTACTGC) | 0.857
2 | TTATCATCATGGACCGGTTTTCCCGGTAATCCGTATTTGCA (site TTATCATCTTG) | 1.53
3 | TTATCGTCATGGACCGGTTTTCCCGGTAATCCGTATTTGGC (site TTATCGTCTGC) | 1.36
4 | TTATCTGCATGGACCGGTTTTCCCGGTAATCCGTATTTGAT (site TTATCTGCTAT) | 0.557
5 | TTATGCACATGGACCGGTTTTCCCGGTAATCCGTATTTGTA (site ATATGCACTTA) | 0.0128
6 | TTATGCACATGGACCGGTTTTCCCGGTAATCCGTATTTGTA (site CTATGCACTTA) | 0.34
7 | TTATGCACATGGACCGGTTTTCCCGGTAATCCGTATTTGTA (site GTATGCACTTA) | 0.0305
8 | TTATGCACATGGACCGGTTTTCCCGGTAATCCGTATTTGTA (site TTATGCACTTA) | 0.769
9 | TTATTCCCATGGACCGGTTTTCCCGGTAATCCGTATTTGCA (site TTATTCCCTTG) | 0
10 | TTCAATGCATGGACCGGTTTTCCCGGTAATCCGTATTTGCA (site TTCAATGCTTG) | 0
11 | TTCAGAGCATGGACCGGTTTTCCCGGTAATCCGTATTTGCC (site TTCAGAGCTGG) | 0
12 | TTCAGCTCATGGACCGGTTTTCCCGGTAATCCGTATTTGGT (site TTCAGCTCTAC) | 0.00826
13 | TTCAGTGCATGGACCGGTTTTCCCGGTAATCCGTATTTGGC (site TTCAGTGCTGC) | 0
14 | TTCATACCATGGACCGGTTTTCCCGGTAATCCGTATTTGCC (site TTCATACCTGG) | 0
15 | TTCCAGACATGGACCGGTTTTCCCGGTAATCCGTATTTGTA (site TTCCAGACTTA) | 0.13
16 | TTCCCGCCATGGACCGGTTTTCCCGGTAATCCGTATTTGTT (site TTCCCGCCTAA) | 0.00311
17 | TTCCGCGCATGGACCGGTTTTCCCGGTAATCCGTATTTGCC (site TTCCGCGCTGG) | 0.632
18 | TTCCTAGCATGGACCGGTTTTCCCGGTAATCCGTATTTGAA (site TTCCTAGCTTT) | 0.0135
19 | TTCCTATCATGGACCGGTTTTCCCGGTAATCCGTATTTGCA (site TTCCTATCTTG) | 1.53
20 | TTCGAGCCATGGACCGGTTTTCCCGGTAATCCGTATTTGAC (site TTCGAGCCTGT) | 0
21 | TTCGCGGCATGGACCGGTTTTCCCGGTAATCCGTATTTGCT (site TTAGCGGCTAG) | 0.33
22 | TTCGCGGCATGGACCGGTTTTCCCGGTAATCCGTATTTGCT (site TTCGCGGCTAG) | 0.587
23 | TTCGCGGCATGGACCGGTTTTCCCGGTAATCCGTATTTGCT (site TTGGCGGCTAG) | 0.00776
24 | TTCGCGGCATGGACCGGTTTTCCCGGTAATCCGTATTTGCT (site TTTGCGGCTAG) | 0.0106
25 | TTCGCTGCATGGACCGGTTTTCCCGGTAATCCGTATTTGTG (site TTAGCTGCTCA) | 0.018
26 | TTCGCTGCATGGACCGGTTTTCCCGGTAATCCGTATTTGTG (site TTCGCTGCTCA) | 0.0258

Row | Sequence | recombinant UMI read abundance (log10)
27 | TTCGCTGCATGGACCGGTTTTCCCGGTAATCCGTATTTGTG (site TTGGCTGCTCA) | 0.0131
28 | TTCGCTGCATGGACCGGTTTTCCCGGTAATCCGTATTTGTG (site TTTGCTGCTCA) | 0.00847
29 | TTCGTAACATGGACCGGTTTTCCCGGTAATCCGTATTTGAA (site GCTCGGCCTCC) | 0.019
30 | TTCTAGACATGGACCGGTTTTCCCGGTAATCCGTATTTGTT (site TTCTAGACTAA) | 0.0133
31 | TTCTATACATGGACCGGTTTTCCCGGTAATCCGTATTTGAC (site ATCTATACTGT) | 0
32 | TTCTATACATGGACCGGTTTTCCCGGTAATCCGTATTTGAC (site CTCTATACTGT) | 0
33 | TTCTATACATGGACCGGTTTTCCCGGTAATCCGTATTTGAC (site GTCTATACTGT) | 0
34 | TTCTATACATGGACCGGTTTTCCCGGTAATCCGTATTTGAC (site TTCTATACTGT) | 0.00704
35 | TTCTCCACATGGACCGGTTTTCCCGGTAATCCGTATTTGGA (site TTCTCCACTTC) | 0.00322
36 | TTCTCGACATGGACCGGTTTTCCCGGTAATCCGTATTTGTC (site TTCTCGACTGA) | 0
37 | TTCTTAGCATGGACCGGTTTTCCCGGTAATCCGTATTTGTT (site TTCTTAGCTAA) | 0.0119
38 | TTGACCACATGGACCGGTTTTCCCGGTAATCCGTATTTGCC (site TTGACCACTGG) | 1.79
39 | TTGAGCGCATGGACCGGTTTTCCCGGTAATCCGTATTTGCC (site TTGAGCGCTGG) | 1.9
40 | TTGAGGCCATGGACCGGTTTTCCCGGTAATCCGTATTTGAC (site TTGAGGCCTGT) | 0
41 | TTGATAACATGGACCGGTTTTCCCGGTAATCCGTATTTGGG (site TTGATAACTCC) | 0.00616
42 | TTGCATACATGGACCGGTTTTCCCGGTAATCCGTATTTGGA (site TTGCATACTTC) | 0.121
43 | TTGCGCACATGGACCGGTTTTCCCGGTAATCCGTATTTGTG (site TTGCGCACTCA) | 0.0258
44 | TTGGAGGCATGGACCGGTTTTCCCGGTAATCCGTATTTGTG (site ATGGAGGCTCA) | 0.342
45 | TTGGAGGCATGGACCGGTTTTCCCGGTAATCCGTATTTGTG (site CTGGAGGCTCA) | 0.329
46 | TTGGAGGCATGGACCGGTTTTCCCGGTAATCCGTATTTGTG (site GTGGAGGCTCA) | 0.0131
47 | TTGGAGGCATGGACCGGTTTTCCCGGTAATCCGTATTTGTG (site TTGGAGGCTCA) | 0.791
48 | TTGGGGCCATGGACCGGTTTTCCCGGTAATCCGTATTTGAA (site TTGGGGCCTTT) | 0.00375
49 | TTGGTCACATGGACCGGTTTTCCCGGTAATCCGTATTTGAA (site TTGGTCACTTT) | 0.29
50 | TTGGTCCCATGGACCGGTTTTCCCGGTAATCCGTATTTGAA (site TTGGTCCCTTT) | 0.00683
51 | TTGGTGGCATGGACCGGTTTTCCCGGTAATCCGTATTTGGC (site TTGGTGGCTGC) | 1.84
52 | TTGTTGCCATGGACCGGTTTTCCCGGTAATCCGTATTTGGT (site TTGTTGCCTAC) | 0.0353

Source: the supplement of paper PMC11208160
